{"source": "the supplement of paper PMC6723410"}
{"tested_on": "GUMC-403", "experiment": "viability at highest tested concentration (max response) relative to DMSO (% of DMSO control); higher = less cytotoxic", "conditions": "library / dose series: MIPE library, 11-point 1:3 dilution; top concentration 46.1 µM; 48 h", "method_in_brief": "(§1)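 The value is viability at the highest tested concentration, expressed relative to vehicle control. Patient-derived GUMC-403 papilloma cells, grown by conditional reprogramming, were seeded at 700/well in 5 μL F + Y medium in 1536-well plates. After an overnight incubation at 37 °C, they received 23 nL of compound by pin tool for 48 h. Readout was CellTiter-Glo luminescence on a ViewLux, normalised to vehicle wells (100%) and empty wells (0%).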"}
{"smiles": "C[C@H](NC(=O)Cc1cc(F)cc(F)c1)C(=O)N[C@@H]1C(=O)N(C)c2ccccc2-c2ccccc21", "viability": 108}
{"smiles": "C[C@]12CC[C@H]3[C@@H](CC[C@H]4NC(=O)\\C=C/[C@]34C)[C@@H]1CC[C@@H]2C(=O)NC5=CC(=CC=C5C(F)(F)F)C(F)(F)F", "viability": 96.3}
{"smiles": "[NH2][Pt]1([NH2])[O]CC(=O)[O]1", "viability": 142}
{"smiles": "Cc1cnc(NC(=O)Nc2cc(Br)c(C)cc2OC[C@@H]2CNCCO2)cn1", "viability": 110}
{"smiles": "Clc1ccc(C(c2ccccc2Cl)C(Cl)Cl)cc1", "note": "(stereo unspecified)", "viability": 100}
{"smiles": "COc1ccc2cc3[n+](cc2c1OC)CCc1cc2c(cc1-3)OCO2", "viability": 99.7}
{"smiles": "CN(C)c1ccc(-c2nc3c(N4CCN(CC(=O)Nc5nccs5)CC4)c(Cl)cnc3[nH]2)cc1", "viability": 110}
{"smiles": "C[C@@H](O)[C@@H]1NC(=O)[C@H](CCCCN)NC(=O)[C@@H](Cc2c[nH]c3ccccc23)NC(=O)[C@H](Cc2ccccc2)NC(=O)[C@@H](NC(=O)[C@H](N)Cc2ccccc2)CSSC[C@@H](C(=O)N[C@H](CO)[C@@H](C)O)NC1=O", "viability": 89.7}
{"smiles": "C=C1/C(=C\\C=C2/CCC[C@]3(C)[C@@H]([C@H](C)CCCC(C)(C)O)CC[C@@H]23)C[C@@H](O)C[C@@H]1O", "viability": 145}
{"smiles": "COC(=O)N1CCN(Cc2cccc(NC(=O)Nc3ccc(C)nc3)c2F)CC1", "viability": 105}
{"smiles": "CN1C(=O)\\C(=C/C2=C1N=C(NC3CCOCC3)N=C2)OC4=C(F)C=C(F)C=C4", "viability": 85.5}
{"smiles": "CC1=C(C)C(=O)C(C(CCCCCC(=O)O)c2ccccc2)=C(C)C1=O", "note": "(stereo unspecified)", "viability": 110}
{"smiles": "CN1\\C(=C(O)/C2=C(C=C(Cl)S2)[S+]1([O-])=O)C(=O)NC3=NC=CC=C3", "viability": 67.8}
{"smiles": "CC1=C(CC/C(C)=C/CCC2=CCC(C3=CC(=O)OC3O)OC2O)C(C)(C)CCC1", "note": "(stereo unspecified)", "viability": 99.7}
{"smiles": "C[S+]([O-])(=O)C1=CC=C(C=C1)C/2=C(/C(=O)OC2)C3=CC=CC=C3", "viability": 122}
{"smiles": "O=C(c1cncc(Br)c1)N1CCC(N2CCCC2)CC1", "viability": 115}
{"smiles": "CC[C@@H](C(N)=O)N1CCCC1=O", "viability": 6.2}
{"smiles": "CC[C@H](C)C(=O)O[C@H]1C[C@@H](C)\\C=C2\\C=C/[C@H](C)[C@H](CC[C@@H]3C[C@@H](O)CC(=O)O3)[C@@H]12", "viability": 61.5}
{"smiles": "C=CC(=O)Nc1cc2c(Nc3ccc(F)c(Cl)c3)ncnc2cc1C#CC(C)(C)N1CCN(C)CC1", "viability": 75.9}
{"smiles": "CCC1=C(C)CN(C(=O)NCCc2ccc(S(=O)(=O)NC(=O)N[C@H]3CC[C@H](C)CC3)cc2)C1=O", "viability": 113}
{"smiles": "COc1ccc(C(=O)CC2(O)C(=O)Nc3c(Cl)ccc(Cl)c32)cc1", "note": "(stereo unspecified)", "viability": 113}
{"smiles": "C[S+](=O)([O-])c1ccc(-c2cnc(N)c(C(=O)Nc3ccccc3)n2)cc1", "viability": 132}
{"smiles": "CC(C)(O)CC[C@@H](O)[C@](C)(O)[C@H]1CC[C@@]2(O)C/3=C/C(=O)[C@@H]4C[C@@H](O)[C@@H](O)C[C@]4(C)[C@H]3CC[C@]12C", "viability": 111}
{"smiles": "CCCCOc1ccc(C(=O)Nc2ccc(F)cc2F)cc1", "viability": 101}
{"smiles": "Cc1csc(NC(=O)c2sc3nc4c(c(C(F)(F)F)c3c2N)CCC4)n1", "viability": 94.1}
{"smiles": "CC(C)C(C)/C=C/C(C)C1CCC2C3=CC=C4CC(O)CCC4(C)C3CCC21C", "note": "(stereo unspecified)", "viability": 130}
{"smiles": "CC(C)c1onc(-c2c(Cl)cccc2Cl)c1COc1ccc(/C=C/c2cccc(C(=O)O)c2)c(Cl)c1", "viability": 123}
{"smiles": "CCc1cccc2c3c([nH]c12)C(CC)(CC(=O)O)OCC3", "note": "(stereo unspecified)", "viability": 132}
{"smiles": "Cc1cc(-c2ccc(CC(=O)Nc3ccc(-c4cccnc4)cc3)cc2)ccn1", "viability": 118}
{"smiles": "O=C(c1ccccc1)c1ccc2n1CCC2C(=O)O", "note": "(stereo unspecified)", "viability": 75.8}
{"smiles": "CCCCCOC(=O)NC\\1=N\\C(=O)N(\\C=C1F)[C@@H]2O[C@H](C)[C@@H](O)[C@H]2O", "viability": 83.9}
{"smiles": "C/C=C/C(=O)N(CC)c1ccccc1C", "viability": 110}
{"smiles": "Cc1cn2c(-c3cn[nH]c3)cnc2c(Nc2ccc(C(=O)N3CCNCC3)cc2F)n1", "viability": 60.9}
{"smiles": "CCCNCC(O)COc1ccccc1C(=O)CCc1ccccc1", "note": "(stereo unspecified)", "viability": 90.5}
{"smiles": "Cc1cc(Nc2ncnc3ccc(-c4ccc(CNCC[S+](C)(=O)[O-])o4)cc23)ccc1Oc1ccn2ncnc2c1", "viability": 99.8}
{"smiles": "CC(C)(C)NC(=O)[C@@H]1CN(Cc2cccnc2)CCN1C[C@@H](O)C[C@@H](Cc1ccccc1)C(=O)N[C@H]1c2ccccc2C[C@H]1O.O=S(=O)(O)O", "viability": 130}
{"smiles": "C[C@@H]1CC[C@@]2(OC1)O[C@H]3C[C@H]4[C@@H]5C/C=C6/C[C@H](CC[C@]6(C)[C@H]5CC[C@]4(C)[C@H]3[C@@H]2C)O[C@@H]7O[C@H](CO)[C@@H](O[C@@H]8O[C@@H](C)[C@H](O)[C@@H](O)[C@H]8O)[C@H](O)[C@H]7O[C@@H]9O[C@@H](C)[C@H](O)[C@@H](O)[C@H]9O", "viability": 112}
{"smiles": "C/C(=C\\c1csc(C)n1)[C@@H]1C[C@@H]2O[C@]2(C)CCC[C@H](C)[C@H](O)[C@@H](C)C(=O)C(C)(C)[C@@H](O)CC(=O)O1", "viability": 102}
{"smiles": "Cc1nccn1CC1CCc2c(c3ccccc3n2C)C1=O", "note": "(stereo unspecified)", "viability": 103}
{"smiles": "C[C@@H]\\1CC(=O)N\\N=C1C2=CC=C(NN=C(C#N)C#N)C=C2", "viability": 92.1}
{"smiles": "CN[C@@H](C)C(=O)N[C@H]1CN(C(=O)CC(C)C)CC[C@H]2CC[C@@H](C(=O)NC(c3ccccc3)c3ccccc3)N2C1=O", "viability": 73.1}
{"smiles": "O=C(CCCN1CCC(O)(c2ccc(Cl)cc2)CC1)c1ccc(F)cc1", "viability": 105}
{"smiles": "c1cc(N[C@@H]2CCNC2)nc(-c2cnc3ccc(-c4cn[nH]c4)cn23)c1", "viability": 122}
{"smiles": "CC[C@]12CC[C@H]3[C@@H](CCC/4=C/C(=O)CC[C@H]34)[C@@H]1CC[C@@]2(O)C#C", "viability": 93.2}
{"smiles": "Oc1ccc(/C=C/c2cc(O)cc(O)c2)cc1", "viability": 96.3}
{"smiles": "C[C@]12Cc3cn[nH]c3C[C@@H]1CC[C@@H]1[C@@H]2CC[C@@]2(C)[C@H]1CC[C@]2(C)O", "viability": 108}
{"smiles": "C/C(O)=C(\\C#N)C(=O)Nc1ccc(C(F)(F)F)cc1", "viability": 94.3}
{"smiles": "N#Cc1cc(NC(=O)Nc2nnc(-c3ccncc3)s2)ccc1-c1cn[nH]c1", "viability": 101}
{"smiles": "Cc1cn(-c2cc(NC(=O)c3ccc(C)c(Nc4nccc(-c5cccnc5)n4)c3)cc(C(F)(F)F)c2)cn1", "viability": 130}
{"smiles": "CCCCCCCCc1ccc(CCC(N)(CO)CO)cc1", "viability": 90.9}
{"smiles": "CCN1\\C=C(C(O)=O)/C(=O)C2=C1C(=C(N3CCNC(C)C3)C(=C2)F)F", "note": "(stereo unspecified)", "viability": 126}
{"smiles": "CN(C)C(=N)NC(=N)N", "viability": 122}
{"smiles": "COc1cc(CCc2cc(NC(=O)c3ccc(N4C[C@@H](C)N[C@@H](C)C4)cc3)n[nH]2)cc(OC)c1", "viability": 81.8}
{"smiles": "CC(C)CN(C[C@@H](O)[C@H](Cc1ccccc1)NC(=O)O[C@H]1CCOC1)[S+](=O)([O-])c1ccc(N)cc1", "viability": 109}
{"smiles": "Cc1ccc([S+](=O)([O-])OCC(=O)Nc2ccc(C(=O)O)c(O)c2)cc1", "viability": 91.4}
{"smiles": "CC(C)n1cnc2c(NCCc3ccc(O)cc3)nc(-c3csc4ccccc34)nc21", "viability": 112}
{"smiles": "CC(C)(C)c1cc(C=C(C#N)C#N)cc(Br)c1O", "viability": 101}
{"smiles": "COc1ccc2cccc(CCNC(C)=O)c2c1", "viability": 108}
{"smiles": "COc1cc(OC)c(C(=O)CCCN2CCCC2)c(OC)c1", "viability": 112}
{"smiles": "CC(C)(C)C1=CC(=C(NC(=O)C/2=C/NC3=C(C=CC=C3)C2=O)C=C1O)C(C)(C)C", "viability": 114}
{"smiles": "CC(C)(C)c1cc(C(=O)O)c(NC(=O)Nc2ccc3[nH]ncc3c2)s1", "viability": 87.6}
{"smiles": "COC(=O)Nc1nc2cc(C(=O)c3ccc(F)cc3)ccc2[nH]1", "viability": 88}
{"smiles": "COc1cc2c(cc1OC)[C@@H]1Cc3ccc(OC)c(OC)c3CN1CC2", "viability": 115}
{"smiles": "NC(=O)c1noc([C@H](CCCC2CCCCC2)CC(=O)NO)n1", "viability": 118}
{"smiles": "Cc1c[nH]c(/C=C2\\C(=O)Nc3ccccc32)c1CCC(=O)O", "viability": 136}
{"smiles": "CN(C)CCc1c[nH]c2ccc(Cn3cncn3)cc12", "viability": 100}
{"smiles": "CN(N=O)C(=O)N[C@H]1C(O)OC(CO)[C@@H](O)[C@@H]1O", "note": "(stereo partly specified)", "viability": 113}
{"smiles": "CN(C)[C@H]\\1[C@@H]2[C@@H](O)[C@H]3\\C(=C(O)/[C@]2(O)C(=O)\\C(=C1O)C(N)=O)C(=O)C4=C(C=CC=C4O)[C@@]3(C)O", "viability": 114}
{"smiles": "Cc1cccc(CN2CCN(C(c3ccccc3)c3ccc(Cl)cc3)CC2)c1", "note": "(stereo unspecified)", "viability": 87.2}
{"smiles": "CC(C)(C)NC(=O)Nc1cccc(Nc2ncc(F)c(NC(C)(C)CO)n2)c1", "viability": 121}
{"smiles": "CCNC(=O)[C@H]1O[C@@H](n2cnc3c(N)nc(NCCc4ccc(CCC(=O)O)cc4)nc32)[C@H](O)[C@@H]1O", "viability": 112}
{"smiles": "CN(C)c1ccc(Nc2nc(N)n(C(=O)c3c(F)cccc3F)n2)cc1", "viability": 103}
{"smiles": "O=C(NCC1CN(c2ccc(N3CCOCC3=O)cc2)C(=O)O1)c1ccc(Cl)s1", "note": "(stereo unspecified)", "viability": 127}
{"smiles": "Cc1c(CCOc2ccc(C(=O)O)cc2)c2cc(Cl)ccc2n1C(c1ccccc1)c1ccccc1", "viability": 113}
{"smiles": "OC(=O)C1=CC=C(NC2=NC3=C(C\\N=C(/C4=CC(=CC=C34)Cl)C5=C(F)C=CC=C5F)C=N2)C=C1", "viability": 131}
{"smiles": "C[N]1C=NC=C1[C@@](N)(C2=CC=C(Cl)C=C2)C3=CC=C4N(C)C(=O)\\C=C(\\C5=CC=CC(=C5)Cl)C4=C3", "viability": 96.3}
{"smiles": "COc1ccc(Cc2ccc(NC(N)=O)cc2)cc1-c1cccc(Cl)c1", "viability": 124}
{"smiles": "O=C(Nc1ncc(-c2cc(C(F)F)nn2-c2c(Cl)cccc2Cl)s1)C1CC1", "viability": 84.9}
{"smiles": "CCOC(=O)N1c2ccc(C(F)(F)F)cc2[C@@H](N(Cc2cc(C(F)(F)F)cc(C(F)(F)F)c2)C(=O)OC)C[C@H]1CC", "viability": 87.7}
{"tested_on": "GUMC-403", "experiment": "viability at highest tested concentration (max response) relative to DMSO (% of DMSO control); higher = less cytotoxic", "conditions": "library / dose series: MIPE library, 11-point 1:3 dilution; top concentration 92.2 µM; 48 h", "method_in_brief": "as §1"}
{"smiles": "S=C(NCc1ccc2c(c1)OCO2)N1CCN(c2ncnc3c2oc2ccccc23)CC1", "viability": 100}
{"smiles": "O=C(O)[C@H](Cc1c[nH]c2ccccc12)N1C(=O)c2ccccc2C1=O", "viability": 116}
